In ChEMBL document CHEMBL5380837, “Structure-Activity Relationships of Truncated 1'-Homologated Carbaadenosine Derivatives as New PPARγ/δ Ligands: A Study on Sugar Puckering Affecting Binding to PPARs” (J Med Chem, 2023) one finds Activity, Ki and EC50 data, which are given here for 29 molecules.

Each structure is given as a SMILES string. pEC50, pKi: −log10 of the molar value.

Assay [1] concerns the target T1, Peroxisome proliferator-activated receptor alpha (Homo sapiens) (UniProt Q07869).
T1 sequence (whole entry): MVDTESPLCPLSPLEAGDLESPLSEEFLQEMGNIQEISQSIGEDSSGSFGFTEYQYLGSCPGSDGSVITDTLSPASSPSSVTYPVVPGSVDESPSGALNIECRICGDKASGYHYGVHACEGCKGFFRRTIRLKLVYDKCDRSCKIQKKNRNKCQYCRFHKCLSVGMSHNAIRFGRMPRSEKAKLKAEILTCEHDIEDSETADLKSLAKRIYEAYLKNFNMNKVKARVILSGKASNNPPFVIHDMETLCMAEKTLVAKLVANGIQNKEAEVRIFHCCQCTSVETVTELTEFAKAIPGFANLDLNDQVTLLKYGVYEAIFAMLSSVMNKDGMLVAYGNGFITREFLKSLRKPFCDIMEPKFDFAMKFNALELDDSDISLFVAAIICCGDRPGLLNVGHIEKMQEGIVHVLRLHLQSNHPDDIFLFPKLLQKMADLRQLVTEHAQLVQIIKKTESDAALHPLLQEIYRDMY
Description: Binding affinity to PPARalpha (unknown origin) at 30 uM by TR-FRET based LanthaScreen competitive binding assay relative to control.

In assay [2] the target is T2, Peroxisome proliferator-activated receptor delta (Homo sapiens) (UniProt Q03181).
T2 sequence (whole entry): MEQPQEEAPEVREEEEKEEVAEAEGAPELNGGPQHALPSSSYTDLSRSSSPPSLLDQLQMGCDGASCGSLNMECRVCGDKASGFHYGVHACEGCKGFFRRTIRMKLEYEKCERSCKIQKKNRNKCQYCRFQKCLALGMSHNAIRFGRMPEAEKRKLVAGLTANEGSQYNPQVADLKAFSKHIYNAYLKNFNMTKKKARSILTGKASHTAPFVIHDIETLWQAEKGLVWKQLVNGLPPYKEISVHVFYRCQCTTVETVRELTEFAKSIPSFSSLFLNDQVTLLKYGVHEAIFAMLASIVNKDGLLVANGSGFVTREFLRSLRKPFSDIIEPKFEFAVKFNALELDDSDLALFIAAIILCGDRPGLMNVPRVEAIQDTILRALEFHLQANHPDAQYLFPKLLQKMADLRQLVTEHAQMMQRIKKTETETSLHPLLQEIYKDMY
Nature of the assay: Binding affinity to PPARdelta (unknown origin) at 30 uM by TR-FRET based LanthaScreen competitive binding assay relative to control.

Assay [3] concerns the target T3, Peroxisome proliferator-activated receptor delta (Homo sapiens, UniProt Q03181).
T3 sequence (Q03181 whole entry): T2 sequence (whole entry)
Nature of the assay: Binding affinity to PPARdelta (unknown origin) assessed as inhibition constant by TR-FRET based LanthaScreen competitive binding assay.

The target of assay [4] is T4, Peroxisome proliferator-activated receptor gamma (Homo sapiens, UniProt P37231).
T4 sequence (P37231 whole entry): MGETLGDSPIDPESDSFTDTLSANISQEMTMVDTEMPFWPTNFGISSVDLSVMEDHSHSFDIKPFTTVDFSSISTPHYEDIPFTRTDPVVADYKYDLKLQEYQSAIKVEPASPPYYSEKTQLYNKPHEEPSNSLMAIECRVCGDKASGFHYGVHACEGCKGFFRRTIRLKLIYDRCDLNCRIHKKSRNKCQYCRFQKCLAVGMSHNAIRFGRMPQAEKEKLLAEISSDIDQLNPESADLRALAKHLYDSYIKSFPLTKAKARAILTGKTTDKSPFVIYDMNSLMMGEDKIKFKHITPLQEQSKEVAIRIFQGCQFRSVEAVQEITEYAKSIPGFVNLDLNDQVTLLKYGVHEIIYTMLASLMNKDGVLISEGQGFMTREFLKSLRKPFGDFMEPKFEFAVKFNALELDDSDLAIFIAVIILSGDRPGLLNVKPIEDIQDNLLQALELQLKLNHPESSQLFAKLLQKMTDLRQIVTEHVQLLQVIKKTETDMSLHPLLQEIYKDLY
Nature of the assay: Binding affinity to PPARgamma (unknown origin) assessed as inhibition constant by TR-FRET based LanthaScreen competitive binding assay.

Assay [5] addresses T3, Peroxisome proliferator-activated receptor delta. Description: Antagonist activity at PPARdelta LBD (unknown origin) assessed as increase in fluorescein labeled SMRT-ID2 corepressor peptide requirement by TR-FRET assay.

On to `O[C@@H]1C[C@@H]2C[C@]2(Cn2cnc3c(NCc4cccc(Br)c4)ncnc32)[C@@H]1O`, for which the Activity in assay [1] is 5.6%; in assay [2] it was 9.2%.

The molecule `O[C@@H]1[C@H](O)[C@@H]2C[C@@H]2[C@H]1Cn1cnc2c(NCc3cccc(Cl)c3)nc(Cl)nc21` returned an Activity in assay [1] of 3.8%. Moreover, in assay [3], the pKi was 6.01.

With `COc1cccc(CNc2nc(Cl)nc3c2ncn3C[C@H]2[C@H](O)[C@H](O)[C@@H]3C[C@H]23)c1`, in assay [1], the Activity was found to be 9.2%. Further, the pKi in assay [3] is 6.53.

Molecule `O[C@@H]1[C@H](O)C=C[C@H]1Cn1cnc2c(NCc3cccc(Cl)c3)nc(Cl)nc21` registered an Activity in assay [1] of 4%. Besides, in assay [3], the pKi is 5.60.

As to `O[C@@H]1[C@H](O)C=C[C@H]1Cn1cnc2c(NCc3cccc(F)c3)nc(Cl)nc21`, the Activity was 7% in assay [1] and 28.4% in assay [2].

`O[C@@H]1[C@H](O)[C@@H]2C[C@@H]2[C@H]1Cn1cnc2c(NCc3ccccc3I)nc(Cl)nc21`: the Activity in assay [1] amounted to 3.8%; in assay [2] it was 34.6%. Besides, the pKi in assay [4] is 5.64.

Turning to `O[C@H]1[C@H](Cn2cnc3c(NCc4cccc(I)c4)ncnc32)CC[C@H]1O`, the Activity was 5.3% in assay [1] and 39.4% in assay [2].

For the molecule `O[C@@H]1C[C@@H]2C[C@]2(Cn2cnc3c(NCc4cccc(F)c4)nc(Cl)nc32)[C@@H]1O`, the Activity in assay [1] was 1.7%; in assay [2] it was 11.9%.

As to `O[C@H]1[C@H](Cn2cnc3c(NCc4cccc(Br)c4)ncnc32)CC[C@H]1O`, the figures for the Activity in assay [1] and in assay [2] were 6.6% and 12.9%, respectively.

In assay [1], `O[C@@H]1[C@H](O)CO[C@H]1Cn1cnc2c(NCc3cccc(Br)c3)nc(Cl)nc21` registered an Activity of 0.3%. In addition, the pKi in assay [4] was 5.44; in assay [3] it was 6.43. Moreover, the pEC50 in assay [5] is 4.58.

As to `O[C@@H]1[C@H](O)[C@@H]2C[C@@H]2[C@H]1Cn1cnc2c(NCc3cccc(Br)c3)ncnc21`, the values for the Activity in assay [1] and in assay [2] were 8.3% and 20%, respectively.

Take `O[C@@H]1C[C@@H]2C[C@]2(Cn2cnc3c(NCc4cccc(Cl)c4)ncnc32)[C@@H]1O`: the results for the Activity in assay [1] and in assay [2] were 6.9% and 2%, respectively.

For `O[C@@H]1C[C@@H]2C[C@]2(Cn2cnc3c(NCc4cccc(F)c4)ncnc32)[C@@H]1O`, the Activity in assay [1] turned out to be 2.7%; in assay [2], 7.4%.

For the molecule `O[C@H]1[C@H](Cn2cnc3c(NCc4cccc(Cl)c4)ncnc32)CC[C@H]1O`, the Activity came out at 4% in assay [1] and 2% in assay [2].

Molecule `O[C@H]1[C@H](Cn2cnc3c(NCc4cccc(Cl)c4)nc(Cl)nc32)CC[C@H]1O` had an Activity in assay [1] of 5.1%. For the same molecule, the pKi in assay [3] is 5.79.

Regarding `O[C@@H]1[C@H](O)[C@@H]2C[C@@H]2[C@H]1Cn1cnc2c(NCc3cccc(F)c3)nc(Cl)nc21`, the Activity in assay [1] stood at 3.6%; in assay [2] (filed as antagonist) it was 46.3%.

For the molecule `O[C@@H]1[C@H](O)[C@@H]2C[C@@H]2[C@H]1Cn1cnc2c(NCc3cccc(Cl)c3)ncnc21`, the Activity in assay [1] worked out at 6%; in assay [2] it was 13.4%.

With `Cc1cc(SCc2sc(-c3ccc(C(F)(F)F)cc3)nc2C)ccc1OCC(=O)O`, the Activity in assay [1] is 34.9%.

On to `O[C@H]1[C@H](Cn2cnc3c(NCc4cccc(F)c4)ncnc32)CC[C@H]1O`, for which the Activity in assay [1] is 63%; in assay [2] it was 4.8%.

`O[C@@H]1[C@H](O)[C@@H]2C[C@@H]2[C@H]1Cn1cnc2c(NCc3ccc(I)cc3)nc(Cl)nc21` yielded an Activity in assay [1] of 2.7%. Moreover, the pKi in assay [3] was 5.94.

As for `O[C@@H]1[C@H](O)C=C[C@H]1Cn1cnc2c(NCc3cccc(Br)c3)ncnc21`, the Activity in assay [1] stood at 0.7%; in assay [2] it was 4.2%.

In the case of `O[C@@H]1[C@H](O)C=C[C@H]1Cn1cnc2c(NCc3cccc(Cl)c3)ncnc21`, the Activity in assay [1] worked out at 0.8%; in assay [2] it was 5.9%.

With `O[C@H]1[C@H](Cn2cnc3c(NCc4cccc(F)c4)nc(Cl)nc32)CC[C@H]1O`, the Activity was found to be 6.5% in assay [1] and 37% in assay [2].

The molecule `COC(=O)c1sccc1S(=O)(=O)Nc1ccc(Nc2ccccc2)cc1OC` showed an Activity in assay [1] of 6.4%.

For the molecule `O[C@@H]1[C@H](O)C=C[C@H]1Cn1cnc2c(NCc3cccc(F)c3)ncnc21`, the figures for the Activity in assay [1] and in assay [2] were 5.2% and 2.4%, respectively.

Turning to `O[C@@H]1C[C@@H]2C[C@]2(Cn2cnc3c(NCc4cccc(I)c4)ncnc32)[C@@H]1O`, the Activity in assay [1] came to 9.4%; in assay [2] it was 8.6%.

As to `O[C@@H]1[C@H](O)[C@@H]2C[C@@H]2[C@H]1Cn1cnc2c(NCc3cccc(I)c3)ncnc21`, the Activity in assay [1] amounted to 4.6%; in assay [2] (filed as antagonist), 45.8%.

With `O[C@@H]1[C@H](O)[C@@H]2C[C@@H]2[C@H]1Cn1cnc2c(NCc3cccc(F)c3)ncnc21`, the Activity in assay [1] came out at 7.1%; in assay [2], 0.8%.

As for `O[C@@H]1[C@H](O)C=C[C@H]1Cn1cnc2c(NCc3cccc(I)c3)ncnc21`, the Activity came out at 4.1% in assay [1] and 7.3% in assay [2].
